Laboratory results: ChEMBL document CHEMBL4308841, “Synthesis, in vitro antiproliferative activity, and kinase inhibitory effects of pyrazole-containing diarylureas and diarylamides” (Eur J Med Chem, 2018)

How the values were obtained:
MDA-MB-231 [1] = experiment: Growth inhibition of human MDA-MB-231 cells incubated for 48 hrs by sulforhodamine B assay; type: functional, cell-based; conditions: MDA-MB-231, 48 h
SF-295 = experiment: Growth inhibition of human SF295 cells incubated for 48 hrs by sulforhodamine B assay; type: functional, cell-based; conditions: SF-295, 48 h
OVCAR-8 = experiment: Growth inhibition of human OVCAR8 cells assessed as cell growth at 0.01 uM incubated for 48 hrs by sulforhodamine B assay relative to control; type: functional; conditions: OVCAR-8, 48 h, read-out: Activity
A549 = experiment: Growth inhibition of human A549/ATCC cells incubated for 48 hrs by sulforhodamine B assay; type: functional, cell-based; conditions: A549, 48 h
DU-145 [2] = experiment: Growth inhibition of human DU145 cells assessed as cell growth at 1 uM incubated for 48 hrs by sulforhodamine B assay relative to control; type: functional; conditions: DU-145, 48 h, read-out: Activity
IGROV-1 = experiment: Growth inhibition of human IGROV1 cells assessed as cell growth at 0.1 uM incubated for 48 hrs by sulforhodamine B assay relative to control; type: functional; conditions: IGROV-1, 48 h, read-out: Activity
DU-145 [3] = experiment: Growth inhibition of human DU145 cells assessed as cell growth at 100 uM incubated for 48 hrs by sulforhodamine B assay relative to control; type: functional; conditions: DU-145, 48 h, read-out: Activity
HCT-116 [4] = experiment: Growth inhibition of human HCT116 cells incubated for 48 hrs by sulforhodamine B assay; type: functional, cell-based; conditions: HCT-116, 48 h
RXF 393 = experiment: Growth inhibition of human RXF393 cells assessed as cell growth at 1 uM incubated for 48 hrs by sulforhodamine B assay relative to control; type: functional; conditions: RXF 393, 48 h, read-out: Activity
SK-MEL-28 = experiment: Growth inhibition of human SK-MEL-28 cells incubated for 48 hrs by sulforhodamine B assay; type: functional, cell-based; conditions: SK-MEL-28, 48 h
T47D [5] = experiment: Growth inhibition of human T47D cells incubated for 48 hrs by sulforhodamine B assay; type: functional, cell-based
NCI/ADR-RES = experiment: Growth inhibition of human NCI/ADR-RES cells assessed as cell growth at 0.1 uM incubated for 48 hrs by sulforhodamine B assay relative to control; type: functional; conditions: read-out: Activity
MDA-MB-435 = experiment: Growth inhibition of human MDA-MB-435 cells assessed as cell growth at 1 uM incubated for 48 hrs by sulforhodamine B assay relative to control; type: functional; conditions: MDA-MB-435, 48 h, read-out: Activity
K562 = experiment: Growth inhibition of human K562 cells assessed as cell growth at 0.01 uM incubated for 48 hrs by sulforhodamine B assay relative to control; type: functional; conditions: K562, 48 h, read-out: Activity
T47D [6] = experiment: Growth inhibition of human T47D cells assessed as cell growth at 1 uM incubated for 48 hrs by sulforhodamine B assay relative to control; type: functional; conditions: read-out: Activity
CAKI-1 = experiment: Growth inhibition of human Caki1 cells assessed as cell growth at 0.01 uM incubated for 48 hrs by sulforhodamine B assay relative to control; type: functional; conditions: CAKI-1, 48 h, read-out: Activity
NCI-H460 = experiment: Growth inhibition of human NCI-H460 cells assessed as cell growth at 0.1 uM incubated for 48 hrs by sulforhodamine B assay relative to control; type: functional; conditions: NCI-H460, 48 h, read-out: Activity
Malme-3M = experiment: Growth inhibition of human MALME-3M cells assessed as cell growth at 0.01 uM incubated for 48 hrs by sulforhodamine B assay relative to control; type: functional; conditions: read-out: Activity
T47D [7] = experiment: Growth inhibition of human T47D cells assessed as cell growth at 0.1 uM incubated for 48 hrs by sulforhodamine B assay relative to control; type: functional; conditions: read-out: Activity
HCT-116 [8] = experiment: Growth inhibition of human HCT116 cells assessed as cell growth at 0.1 uM incubated for 48 hrs by sulforhodamine B assay relative to control; type: functional; conditions: HCT-116, 48 h, read-out: Activity
SNB-75 = experiment: Growth inhibition of human SNB75 cells assessed as cell growth at 1 uM incubated for 48 hrs by sulforhodamine B assay relative to control; type: functional; conditions: SNB-75, 48 h, read-out: Activity
MDA-MB-231 [9] = experiment: Growth inhibition of human MDA-MB-231 cells assessed as cell growth at 100 uM incubated for 48 hrs by sulforhodamine B assay relative to control; type: functional; conditions: MDA-MB-231, 48 h, read-out: Activity
SK-MEL-2 = experiment: Growth inhibition of human SK-MEL-2 cells assessed as cell growth at 100 uM incubated for 48 hrs by sulforhodamine B assay relative to control; type: functional; conditions: SK-MEL-2, 48 h, read-out: Activity
ACHN = experiment: Growth inhibition of human ACHN cells assessed as cell growth at 0.1 uM incubated for 48 hrs by sulforhodamine B assay relative to control; type: functional; conditions: read-out: Activity
A498 = experiment: Growth inhibition of human A498 cells assessed as cell growth at 0.01 uM incubated for 48 hrs by sulforhodamine B assay relative to control; type: functional; conditions: A498, 48 h, read-out: Activity
UACC-62 [10] = experiment: Growth inhibition of human UACC62 cells assessed as cell growth at 1 uM incubated for 48 hrs by sulforhodamine B assay relative to control; type: functional; conditions: UACC-62, 48 h, read-out: Activity
UACC-62 [11] = experiment: Growth inhibition of human UACC62 cells assessed as cell growth at 100 uM incubated for 48 hrs by sulforhodamine B assay relative to control; type: functional; conditions: UACC-62, 48 h, read-out: Activity
MCF7 = experiment: Growth inhibition of human MCF7 cells assessed as cell growth at 0.1 uM incubated for 48 hrs by sulforhodamine B assay relative to control; type: functional; conditions: MCF7, 48 h, read-out: Activity
[12] = read-out: LC50 (the source's name)
[13] = read-out: pLC50 (the source's name) (converted)

Work on `O=C(Nc1cccc(-n2cc(-c3ccncc3)c(-c3cc(O)cc(Cl)c3)n2)c1)c1cc(C(F)(F)F)cc(C(F)(F)F)c1` yielded a GI50 (MDA-MB-231 [1]; read-out: GI50) of 1.42 µM, a CC50 (MDA-MB-231 [1]; [12]) of 77.8 µM and a TGI (MDA-MB-231 [1]; read-out: TGI) of 33.2 µM. For the same compound, the GI50 (MDA-MB-231 [1]; read-out: pGI50 (converted)) was 1.41 µM, the CC50 (MDA-MB-231 [1]; [13]) was 7.76 µM and the TGI (MDA-MB-231 [1]; read-out: pTGI (converted)) was 3.31 µM. The GI50 (SF-295; read-out: GI50) was 2.37 µM, the CC50 (SF-295; [12]) was greater than 100 µM and the TGI (SF-295; read-out: TGI) was 71.5 µM. The GI50 (SF-295; read-out: pGI50 (converted)) was 2.4 µM, the CC50 (SF-295; [13]) was greater than 100 µM and the TGI (SF-295; read-out: pTGI (converted)) was 7.08 µM. For the same compound, the growth at 0.01 µM (OVCAR-8) was 98%, the IC50 (A549) was 2.62 µM and the GI50 (A549; read-out: GI50) was 2.52 µM. For the same compound, the CC50 (A549; [12]) was greater than 100 µM, the TGI (A549; read-out: TGI) was greater than 100 µM and the GI50 (A549; read-out: pGI50 (converted)) was 2.63 µM. It also gave a CC50 (A549; [13]) greater than 100 µM, a TGI (A549; read-out: pTGI (converted)) greater than 100 µM and a growth at 1 µM (DU-145 [2]) of 93%. It also gave a growth at 0.1 µM (IGROV-1) of 98%, a growth at 100 µM (DU-145 [3]) of 23% and an IC50 (HCT-116 [4]) of 3.23 µM. The GI50 (HCT-116 [4]; read-out: GI50) was 3.23 µM, the CC50 (HCT-116 [4]; [12]) was greater than 100 µM and the TGI (HCT-116 [4]; read-out: TGI) was greater than 100 µM. It also gave a GI50 (HCT-116 [4]; read-out: pGI50 (converted)) of 3.24 µM, a CC50 (HCT-116 [4]; [13]) greater than 100 µM and a TGI (HCT-116 [4]; read-out: pTGI (converted)) greater than 100 µM. The growth at 1 µM (RXF 393) was 78%, the GI50 (SK-MEL-28; read-out: GI50) was 4.71 µM and the CC50 (SK-MEL-28; [12]) was greater than 100 µM. The TGI (SK-MEL-28; read-out: TGI) was 85.3 µM, the GI50 (SK-MEL-28; read-out: pGI50 (converted)) was 4.68 µM and the CC50 (SK-MEL-28; [13]) was greater than 100 µM. The TGI (SK-MEL-28; read-out: pTGI (converted)) was 85.1 µM, the GI50 (T47D [5]; read-out: GI50) was 2.99 µM and the CC50 (T47D [5]; [12]) was greater than 100 µM. It also gave a TGI (T47D [5]; read-out: TGI) of 94.6 µM, a GI50 (T47D [5]; read-out: pGI50 (converted)) of 3.02 µM and a CC50 (T47D [5]; [13]) greater than 100 µM. For the same compound, the TGI (T47D [5]; read-out: pTGI (converted)) was 95.5 µM, the growth at 0.1 µM (NCI/ADR-RES) was 100% and the growth at 1 µM (MDA-MB-435) was 88%. For the same compound, the growth at 0.01 µM (K562) was 99%, the growth at 1 µM (T47D [6]) was 57% and the growth at 0.01 µM (CAKI-1) was 97%. For the same compound, the growth at 0.1 µM (NCI-H460) was 100%, the growth at 0.01 µM (Malme-3M) was 97% and the growth at 0.1 µM (T47D [7]) was 93%. It also gave a growth at 0.1 µM (HCT-116 [8]) of 100%, a growth at 1 µM (SNB-75) of 72% and a growth at 100 µM (MDA-MB-231 [9]) of -84%. For the same compound, the growth at 100 µM (SK-MEL-2) was -43%, the growth at 0.1 µM (ACHN) was 98% and the growth at 0.01 µM (A498) was 53%. For the same compound, the growth at 1 µM (UACC-62 [10]) was 92%, the growth at 100 µM (UACC-62 [11]) was -35% and the growth at 0.1 µM (MCF7) was 92%.
